Measurements from ChEMBL document CHEMBL6096675 (J Med Chem, 2025).

Columns and labels:
NCI-H1792 = test: Antiproliferative activity against human SMARCA4-wild type NCI-H1792 cells assessed as maximal inhibition of cell growth measured after 7 days by WST-8 assay relative to control; type: functional; conditions: time 7 day
[1] = Cmax in rat at 1 mg/kg, iv; type: ADME, organism-based; conditions: in vivo
[2] = Plasma concentration in mouse xenografted with human H838 cells at 10 mg/kg, iv single dose measured after 6 hrs by LC-MS/MS analysis; type: ADME, organism-based, NCI-H838
[3] = Drug uptake in tumor of mouse xenografted with human MV4-11 cells at 30 mg/kg, iv single dose measured after 96 hrs by LC-MS/MS analysis; type: ADME, organism-based, Neoplasm; conditions: read-out: Drug uptake

Compound: Cc1ncsc1-c1ccc([C@H](CN2CCOCC2)NC(=O)[C@@H]2C[C@@H](O)CN2C(=O)[C@@H](n2cc([C@H]3CC[C@H](CN4CCC(c5ccc6c(c5)-n5c(nc(=O)c7c(Cl)cccc75)C65CCCCC5)CC4)CC3)nn2)C(C)(C)C)cc1
- Imax (NCI-H1792): 80%
- Cmax [1]: 2420 ng/mL
- concentration at 6 h [2]: 585 ng/mL
- concentration at 96 h [3]: 1640 ng/mL
